Source: US5773459A, “Urea- and thiourea-type compounds” (Sugen, Inc., priority 1995, dated 1998)
Like-named read-outs stand apart in the source and are kept apart here.

Assays:
Type in all cases: cell-based
[1] = test system: MCF7 human breast carcinoma cells; assay: MCF-7 SRB Growth Assay; conditions: read-out: GROWTH DATA: MCF7 10% FBS
Source text: The following examples illustrate the ability of the exemplary compounds to inhibit receptor tyrosine kinases, such as HER2 and/or EGFR. The following target cells were used for cellular kinase assays: NIH3T3 clone C7 (Honegger et al., supra) engineered to over-express human EGF receptor; NIH3T3 cells engineered to over-express a chimeric receptor containing the EGFR extracellular domain and the HER2 intracellular kinase domain; the human mammary carcinoma line BT474 (ATCC HTB2) expressing HER2; and the human glioblastoma line U1242 that expresses PDGFR-beta. Growth assays were carried out using human mammary epithelial SKBR3 (ATCC HTB30) cells (SKBR3 cells over-express HER2), SKOV3 (ATCC HTB77) human ovarian cancer cell line (SKOV3 cells also over-express HER2), A431 cells (A431 cells over-express EGFR) MCF7 human breast carcinoma cells, MCF7 cells overexpressing the HER2 kinase (MCF7-HER2), NIH3T3 cells, and NIH3T3 cells overexpressing the HER2 kinase (3T3-HER2.
MCF-7 cells are seeded at 2000 cells/ well in a 96-well flat bottom plate in normal growth media, which was 10% FBS/RPMI supplemented with 2 mM Glutamine. The plate of cells is incubated for about 24 hours at 37° C. after which it receives an equal volume of compound dilution per well making the total volume per well 200 μl. The compound is prepared at 2 times the desired highest final concentration and serially diluted in the normal growth media in a 96-well round bottom plate and then transferred to plate of cells. DMSO serves as the vector control up to 0.2% as final concentration. The cells are then incubated at 37° C. in a humidified 5% CO2 incubator.
Four days following dosing of compound, the media is 15 discarded and 200 μl/well of ice-cold 10% TCA (Trichloroacetic Acid) is added to fix cells. After 60 minutes at 4° C., the TCA is discarded and the plate is rinsed 5 times with water. The plate is then air-dried and 100 μl/well of 0.4% SRB (Sulforhodamine B from Sigma) 20 in 1% Acetic Acid is added to stain cells for 10 minutes at room temperature. The SRB is discarded and the plate is rinsed 5 times with 1% Acetic Acid. After the plate is completely dried, 100 μl/well of 10 mM Tris-base is added to solubilize the dye. After 5 to 10 minutes, the plate is read on a Dynatech ELISA Plate Reader at dual wavelengths at 570 nm and 630 nm.

IGF-1R = target: T1, IGF-1R (Homo sapiens, UniProt P08069); assay: Cellular IGF-1 Receptor ELISA
T1 construct: expressed in transfected cells; host or cells: 3T3/IGF-1R
Procedure: Cellular IGF-1 Receptor ELISA (Version I)
(1). The cell line used in this assay is 3T3/IGF-1R, a cell line which overexpresses IGF-1 Receptor.
(2). 3T3/IGF-1 R is grown in an incubator with 5% CO2 at 37° C. The growth media is DMEM+10% FBS (heat inactivated)+2 mM L-Glutamine.
(3). For ELISA plate coating, the anti-IGF-1 R antibody named 17-69 is used. Antibodies are purified by the Enzymology Lab, SUGEN, Inc.
(10). Insulin-like growth factor-1 from Promega (Cat# G5111).
(2). […] Incubate for 1 day then replace medium to serum-free medium (90/ul) and incubate in 5% CO2 and 37° C. overnight.
(§1) 2. ELISA Plate Coating and Blocking
(§2) (2). Remove the coating solution, and replace with 100 ul Blocking Buffer, and shake for 30 minutes. Remove the blocking buffer and wash the plate just before adding lysate.
(§3) (1). The drugs are tested in serum-free condition.
(2). Dilute drug stock (in 100% DMSO) 1:10 with DMEM in 96-well poly-propylene plate, and transfer 10 ul/well of this solution to the cells to achieve final drug dilution 1:100, and final DMSO concentration of 1.0%. Incubate the cells in 5% CO2 at 37° C for 2 hours.
(3). Prepare fresh cell lysis buffer (HNTG HNTG 2 ml EDTA 0.1 ml Na3VO4 0.1 ml Na4P207 0.1 ml H20 7.3 ml HNTG* 10 ml.
(4). After drug incubation for two hours, transfer 10 ul/well of 200 nM IGF-1 Ligand in PBS to the cells (Final Conc=20 nM), and incubate at 5% CO2 at 37° C. for 10 minutes.
(5). Remove media and add 100 ul/well HNTG* and shake for 10 minutes. Look at cells under microscope to see if they are adequately lysed.
(§4) (6). Use a 12-channel pipette to scrape the cells from the plate, and homogenize the lysate by repeat aspiration and dispense. Transfer all the lysate to the antibody coated ELISA plate [V.2.(2)], and shake for 1 hour.
(§5) (7). Remove the lysate, wash the plate, transfer anti-pTyr (1:3,000 with TBST) 100 ul/well, and shake for 30 minutes.
(7). Remove anti-pTyr, wash the plate, transfer detection antibody (1:3,000 with TBST) 100 ul/well, and shake for 30 minutes.
(8). Remove detection antibody, wash the plate, and transfer fresh ABTS/H2O2 (1.2 ul H2O2 to 10 ml ABTS) 100 ul/well to the plate to start color development.
(9). Measure OD (410 nm) in Dynatec MR5000, which is connected to Ingres.

Insulin Receptor = target: T2, Insulin Receptor (Homo sapiens, UniProt P06213); assay: Cellular Insulin Receptor ELISA
T2 construct: host or cells: H25 (NIH3T3)
Procedure: Cellular Insulin Receptor ELISA (Version I)
The following protocol describes the cell line, reagents and procedures used to measure phosphotyrosine level on Insulin Receptor, which indicates Insulin Receptor tyrosine kinase activity.
(2). H25 cells are grown in an incubator with 5% CO2 at 37° C. The growth media is DMEM+10% FBS (heat inactivated)+2 mM L-Glutamine.
(3). For ELISA plate coating, the monoclonal anti-IR antibody named BBE is used. Antibodies are purified by the Enzymology Lab, SUGEN, Inc.
(2). […] Incubate for 1 day then replace medium to 0.01% serum medium (90/ul) and incubate in 5% CO2 and 37° C. overnight.
as §1, §2, §3
(2). Dilute drug stock (in 100% DMSO) 1:10 with DMEM in 96-well poly-propylene plate, and transfer 10 ul/well of this solution to the cells to achieve final drug dilution 1:100, and final DMSO concentration of 1.0%. Incubate the cells in 5% CO2 at 37° C. for 2 hours.
(3). Prepare fresh cell lysis buffer (HNTG*) HNTG 2 ml EDTA 0.1 ml Na3VO4 0.1 ml Na4P2O7 0.1 ml H20 7.3 ml HNTG* 10 ml.
(4). After drug incubation for two hours, transfer 10 ul/well of 1 μM Insulin in PBS to the cells (Final Conc=100 nM), and incubate at 5% CO2 at 37° C. for 10 minutes.
(5). Remove media and add 100ul/well HNTG* and shake for 10 minutes. Look at cells under microscope to see if they are adequately lysed.
as §4, §5
(8). Remove anti-pTyr, wash the plate, transfer detection antibody (1:3,000 with TBST) 100 ul/well, and shake for 30 minutes.
(9). […]

[2] = 3T3/IGF-1R cells, IGF-1 stimulated, read-out: ELISA DATA: IGF-1R
[3] = H25 cells (NIH3T3 overexpressing Insulin Receptor), insulin stimulated, read-out: ELISA DATA: IR

T1 sequence (P08069 31-1367): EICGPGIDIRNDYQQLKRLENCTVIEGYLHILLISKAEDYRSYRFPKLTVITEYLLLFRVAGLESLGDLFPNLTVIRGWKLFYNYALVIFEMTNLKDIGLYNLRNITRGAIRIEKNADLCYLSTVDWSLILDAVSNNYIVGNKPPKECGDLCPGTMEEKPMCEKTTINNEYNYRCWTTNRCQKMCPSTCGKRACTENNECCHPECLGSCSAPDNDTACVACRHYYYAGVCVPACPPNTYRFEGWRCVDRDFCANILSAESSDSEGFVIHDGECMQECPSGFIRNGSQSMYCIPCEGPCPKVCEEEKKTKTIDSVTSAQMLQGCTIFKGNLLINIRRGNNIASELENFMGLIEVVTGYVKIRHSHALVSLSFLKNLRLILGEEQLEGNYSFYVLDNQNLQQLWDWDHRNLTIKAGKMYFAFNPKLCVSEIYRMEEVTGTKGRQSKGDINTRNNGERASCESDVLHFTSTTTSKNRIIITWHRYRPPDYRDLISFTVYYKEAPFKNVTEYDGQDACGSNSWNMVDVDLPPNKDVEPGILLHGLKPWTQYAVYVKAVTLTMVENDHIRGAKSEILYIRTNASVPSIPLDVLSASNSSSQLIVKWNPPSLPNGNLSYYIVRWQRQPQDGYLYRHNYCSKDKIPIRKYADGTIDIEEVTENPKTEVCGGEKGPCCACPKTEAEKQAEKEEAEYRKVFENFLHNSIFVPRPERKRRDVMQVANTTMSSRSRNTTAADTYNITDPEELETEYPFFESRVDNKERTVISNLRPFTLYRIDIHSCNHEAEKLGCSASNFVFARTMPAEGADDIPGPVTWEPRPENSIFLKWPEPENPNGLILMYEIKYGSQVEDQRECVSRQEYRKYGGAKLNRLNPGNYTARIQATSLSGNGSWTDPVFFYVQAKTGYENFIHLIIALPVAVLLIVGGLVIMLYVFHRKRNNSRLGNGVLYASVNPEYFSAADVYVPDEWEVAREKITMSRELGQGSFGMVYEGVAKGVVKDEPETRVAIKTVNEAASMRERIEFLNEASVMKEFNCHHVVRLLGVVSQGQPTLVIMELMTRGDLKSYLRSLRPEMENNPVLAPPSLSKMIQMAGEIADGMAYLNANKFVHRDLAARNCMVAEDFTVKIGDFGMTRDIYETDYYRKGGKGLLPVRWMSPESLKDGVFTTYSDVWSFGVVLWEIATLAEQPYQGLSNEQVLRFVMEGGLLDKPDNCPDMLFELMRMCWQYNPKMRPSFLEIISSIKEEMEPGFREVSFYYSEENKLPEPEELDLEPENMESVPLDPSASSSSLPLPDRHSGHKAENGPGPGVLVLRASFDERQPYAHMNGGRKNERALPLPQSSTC
T2 sequence (P06213 28-1382, species assumed): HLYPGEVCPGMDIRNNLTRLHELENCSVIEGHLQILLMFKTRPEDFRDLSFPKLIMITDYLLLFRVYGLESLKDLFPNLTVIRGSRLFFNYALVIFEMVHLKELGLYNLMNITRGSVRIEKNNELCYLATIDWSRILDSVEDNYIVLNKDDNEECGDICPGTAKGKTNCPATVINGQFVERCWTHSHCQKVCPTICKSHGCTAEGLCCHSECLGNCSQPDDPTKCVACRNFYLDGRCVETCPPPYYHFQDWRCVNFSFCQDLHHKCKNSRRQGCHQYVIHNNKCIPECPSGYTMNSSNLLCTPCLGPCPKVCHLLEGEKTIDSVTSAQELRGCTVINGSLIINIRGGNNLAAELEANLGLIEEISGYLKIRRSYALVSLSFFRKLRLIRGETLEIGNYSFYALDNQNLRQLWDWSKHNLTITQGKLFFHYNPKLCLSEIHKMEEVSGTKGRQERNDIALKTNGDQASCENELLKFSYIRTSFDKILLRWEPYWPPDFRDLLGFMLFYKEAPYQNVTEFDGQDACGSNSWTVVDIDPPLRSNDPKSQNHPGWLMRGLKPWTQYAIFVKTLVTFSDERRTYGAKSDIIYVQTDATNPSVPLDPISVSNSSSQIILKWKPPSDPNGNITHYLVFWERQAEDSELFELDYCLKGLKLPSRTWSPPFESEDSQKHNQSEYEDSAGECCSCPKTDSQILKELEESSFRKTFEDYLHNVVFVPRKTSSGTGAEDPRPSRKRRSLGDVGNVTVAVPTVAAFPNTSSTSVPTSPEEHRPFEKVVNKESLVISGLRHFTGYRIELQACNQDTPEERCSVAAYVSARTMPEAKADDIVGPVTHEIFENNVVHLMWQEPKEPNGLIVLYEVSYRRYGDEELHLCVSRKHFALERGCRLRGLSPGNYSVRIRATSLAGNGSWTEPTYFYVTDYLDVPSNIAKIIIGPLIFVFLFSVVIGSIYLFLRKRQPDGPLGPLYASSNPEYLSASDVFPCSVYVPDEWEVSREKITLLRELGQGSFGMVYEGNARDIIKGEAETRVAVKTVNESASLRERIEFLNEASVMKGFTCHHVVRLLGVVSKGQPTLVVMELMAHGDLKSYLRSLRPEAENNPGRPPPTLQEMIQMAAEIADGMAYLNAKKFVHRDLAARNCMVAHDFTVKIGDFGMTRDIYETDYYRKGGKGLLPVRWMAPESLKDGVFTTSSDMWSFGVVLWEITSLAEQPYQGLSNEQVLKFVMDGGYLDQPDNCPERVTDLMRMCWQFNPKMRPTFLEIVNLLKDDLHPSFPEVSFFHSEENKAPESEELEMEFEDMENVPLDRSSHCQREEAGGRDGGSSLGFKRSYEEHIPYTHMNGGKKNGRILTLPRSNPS

IC50 [1] [µM]	IC50 (IGF-1R; [2]) [µM]	IC50 (Insulin Receptor; [3]) [µM]	Compound	IC50 (IGF-1R) [µM]	IC50 (Insulin Receptor) [µM]
5	> 100	> 100	CC(C)S(=O)(=O)c1csc(NC(=O)Nc2ccc(C(C)(C)C)cc2)c1Cl [Example Z1, N-[3-Chloro-4-(isopropylsulfonyl)thien-2-yl]-N'-(4-t-butylphenyl)urea]		
1	> 100	> 100	CC(C)S(=O)(=O)c1csc(NC(=O)Nc2cc(C(F)(F)F)cc(C(F)(F)F)c2)c1Cl [Example Z2, N-[3-Chloro-4-(isopropylsulfonyl)thien-2-yl]-N'-(3,5-di-trifluoromethylphenyl)urea]		
3	> 100		N#Cc1ccc(NC(=S)Nc2ccc(S(=O)(=O)N3CCCCC3)cc2)cc1 [Example Z4, N-(4-Cyanophenyl)-N'-[4-[(piperid-1-yl)sulfonyl]phenyl]thiourea]		

Compound	IC50 [1] [µM]	IC50 (IGF-1R; [2]) [µM]	IC50 (Insulin Receptor; [3]) [µM]	IC50 (IGF-1R) [µM]	IC50 (Insulin Receptor) [µM]
O=C(Nc1ccc(SC(F)(F)F)cc1)Nc1ccc(Oc2ccc(Cl)cc2Cl)nc1 [Example Z3]	2			16.5	> 100
